Test results taken from patent publication US20250205342A1, “IRAK DEGRADERS AND USES THEREOF” (Kymera Therapeutics, Inc., priority 2022, published 2025).

Legend:
IRAK4 [1] = biological target: T1, IRAK4 (Homo sapiens, UniProt Q9NWZ3); assay: hPBMC IRAK4 degradation flow assay (monocytes); format: cell-based; parameters: endogenous in cells; host or cells: human PBMCs (monocytes, CD14 positive gate); settings: CD14 positive monocytes, 20 h, read-out: hPBMC monocyte DC50 at 20 h
T1 sequence (Q9NWZ3 1-460): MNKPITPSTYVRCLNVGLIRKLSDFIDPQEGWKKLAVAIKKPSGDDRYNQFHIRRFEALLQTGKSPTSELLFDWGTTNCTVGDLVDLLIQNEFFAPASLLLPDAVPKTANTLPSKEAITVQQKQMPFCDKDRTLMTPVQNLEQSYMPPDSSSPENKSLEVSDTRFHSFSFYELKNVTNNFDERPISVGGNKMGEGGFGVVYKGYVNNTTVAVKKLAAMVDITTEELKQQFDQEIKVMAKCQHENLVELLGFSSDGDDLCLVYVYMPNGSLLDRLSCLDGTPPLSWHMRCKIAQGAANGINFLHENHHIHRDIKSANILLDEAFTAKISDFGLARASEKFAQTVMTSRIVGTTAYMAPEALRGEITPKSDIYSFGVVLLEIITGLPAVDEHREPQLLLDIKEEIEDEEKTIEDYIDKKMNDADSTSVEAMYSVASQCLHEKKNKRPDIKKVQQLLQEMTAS
Description: In the hPBMC IRAK4 degradation flow assay, frozen PBMCs were thawed into RPMI with 10% FBS and allowed to recover. On the same day as thawed, PBMCs were plated in 96 well plate, 90 μL per well. Compound plates were prepared and a 10 point, 5-fold dilution was performed with a final DMSO concentration of 0.1%. Compound 10 μL per well was added, sealed and incubated at 37° C., 5% CO2 for 20 hours (for 4 hour treatment, compounds were prepared and added the following day). Following the treatment incubation period (day 1), 1.6% PFA was added to PBMC plate and placed on plate shaker for 30 seconds and incubated for 10 mins at room temperature. Cells were spun down and washed two times with PBS/0.5% BSA, aspirated to pellet and placed into −80° C. freezer until further processing for flow. On the flow run day, PBMC plates were thawed and samples were transferred to PCR plates. The pre-perm staining cocktail (CD3 Ax488/CD8 BUV805/CD14 BUV395/CD16/56 BV711/CD19 BV785) was added to samples and incubated for 30 minutes at room temperature. Samples were washed two times and permeabilized with methanol for 10 minutes at 4° C. Samples were washed two times and the post-perm staining cocktail (CD4 PE/IRAK4 Ax647 BD #560315) was added and incubated for 30 minutes at room temperature. Samples were washed two times with PBS/BSA and run on a BD LSRFortessa. Mononuclear cells are gated by SSCH/FSCH and single cells. Monocytes are then gated through CD14 positive gate and lymphocytes are gated through CD14 negative gate. To determine absolute DC50 and max degradation values, MFI values were normalized to DMSO max and 20 hour 10 µM min control. Twenty hour dose curves were calculated using a 4 parameter logistic regression curve fit, no constraints (Top doses were removed if hook effects were observed and the bottom was constrained to 0).
(§1) IRAK4 MSD degradation in OCI-LY10 results at 4 and 24 hrs and hPBMC at 20 hrs for compounds of the invention are presented in Table 3. The letter codes for IRAK4 DC50 include: A (<0.1 μM), B (0.1-1.0 μM), C(>1.0-10.0 μM), D (>10.0 μM or not determined).

IRAK4 [2] = biological target: T1, IRAK4; assay: IRAK4 degradation in OCI-LY10 (MSD, Meso Scale Discovery); format: cell-based; parameters: endogenous in cells; host or cells: OCI-LY10; settings: OCI-LY10 cells, 24 h
Description: Degradation of IRAK4 in OCI-LY10 was quantitatively measured using Meso Scale Discovery technology. OCI-LY10 cells were seeded in 96-well plates (Corning 3799) with a density of 300,000 cells per well in 100 μL fresh media. Compounds were then added to the assay plates with a final top concentration of 1 to 10 μM in a 1:3 dilution series with total of 8 doses. The assay plates were then incubated for 4 to 24 hours at 37° C. under 5% CO2. The assay plates were then centrifuged for 5 minutes and the cell pellets were treated with 100 μL/well RIPA lysis buffer (Boston BioProducts BP-115D) with proteinase inhibitors. To prepare MSD assay plates (Meso Scale Discovery Catalog number L15XA-3), the plates were coated with 2 ug/mL capture antibody (mouse Anti-IRAK4 antibody [2H9], ab119942) in PBS, at 40 μL/well. The plates were then incubated overnight at […], washed 3 times with 150 μL/well TBST buffer (Cell Signaling Technology, Catalog number 9997S) and blocked with 150 μL/well blocking buffer (Meso Scale Discovery Catalog number R^93BA-4). Cell lysates were then added to MSD assay plates and the plates were incubated at room temperature for 1 hour. The plates were then washed 3 times with 150 μL/well TBST buffer and 25 μL/well primary detection antibody (rabbit Anti-IRAK4 antibody [Y279], from Abcam. Catalog number ab32511, 1 μg/mL). The assay plates were then incubated at room temperature for 1 hour, washed 3 times with 150 μL/well TBST buffer and 25 μL/well secondary detection antibody, SULFO-TAG anti-rabbit antibody were added (anti-rabbit antibody from Meso Scale Discovery, Catalog number R^32AB-1, 1 μg/mL). The assay plates were then incubated at room temperature for 1 hour, washed 3 times with 150 μL/well TBST buffer, and 150 μL/well MSD reading buffer (Meso Scale Discovery catalog number R^92TC-2) was added. The plates were then analyzed by a MSD reader (Meso Scale Discovery, Model Quick Plex SQ 120). The data was then analyzed by software Prism 7.0 from GraphPad and the dose-depended IRAK4 degradation were fit using a three-parameter logistic equation to calculate DC50.
as §1

Structure (SMILES) | DC50 (IRAK4 [1]) [µM] | DC50 (IRAK4 [2]) [µM]
O=C(O)Cn1cc(NC(=O)c2cccc3c2ccn3CCCCCCNC[C@H]2CC[C@H](n3cc(NC(=O)c4cnn5ccc(N6C[C@H]7C[C@@H]6CO7)nc45)c(C(F)F)n3)CC2)ccc1=O [Compound I-59] | > 10 | > 10
CCOC(=O)Cn1cc(NC(=O)[C@H]2CCCN(c3cncc(CCCCCCNC[C@H]4CC[C@H](n5cc(NC(=O)c6cnn7ccc(N8C[C@H]9C[C@@H]8CO9)nc67)c(C(F)F)n5)CC4)c3)C2)ccc1=O [Compound I-32] | > 10 | > 10
CC(C)(O)c1cc2nn([C@H]3CC[C@H](CNCCCCCCCCCc4ccc5c(-c6cccc(C(=O)Nc7ccc(=O)n(CC(=O)O)c7)c6)cncc5c4)CC3)cc2cc1NC(=O)c1cccc(C(F)(F)F)n1 [Compound I-53] | > 10 | > 10
CCOC(=O)Cn1cc(NC(=O)c2cc(CCCCCCNC[C@H]3CC[C@H](n4cc5cc(NC(=O)c6cccc(C(F)(F)F)n6)c(C(C)(C)O)cc5n4)CC3)cc(-c3cccnc3)c2)ccc1=O [Compound I-95] | > 10 | > 10
COc1cc2nn([C@H]3CC[C@H](CNCCOCCOCCOCCOCCNc4cncc(N5CCC[C@H](C(=O)Nc6ccc(=O)n(CC(=O)O)c6)C5)c4)CC3)cc2cc1NC(=O)c1cccc(C(F)(F)F)n1 [Compound I-3] | > 10 | > 10
O=C(O)Cn1cc(NC(=O)[C@H]2CCCN(c3cncc(NCCNC[C@H]4CC[C@H](n5cc(NC(=O)c6cnn7ccc(N8C[C@H]9C[C@@H]8CO9)nc67)c(C(F)F)n5)CC4)c3)C2)ccc1=O [Compound I-8] | > 10 | > 10
CCOC(=O)Cn1cc(NC(=O)c2cc(CCCCCCCCCNC[C@H]3CC[C@H](n4cc(NC(=O)c5cnn6ccc(N7C[C@H]8C[C@@H]7CO8)nc56)c(C(F)F)n4)CC3)cc(-c3cccnc3)c2)ccc1=O [Compound I-75] | > 10 | 1 to 10
CCOC(=O)Cn1cc(NC(=O)[C@H]2CCCN(c3cncc(NCCOCCOCCOCCOCCNC[C@H]4CC[C@H](n5cc(NC(=O)c6cnn7ccc(N8C[C@H]9C[C@@H]8CO9)nc67)c(C(F)F)n5)CC4)c3)C2)ccc1=O [Compound I-6] | > 10 | > 10
O=C(O)Cn1cc(NC(=O)[C@H]2CCCN(c3cncc(NCCOCCOCCOCCOCCNC[C@H]4CC[C@H](n5cc(NC(=O)c6cnn7ccc(N8C[C@H]9C[C@@H]8CO9)nc67)c(C(F)F)n5)CC4)c3)C2)ccc1=O [Compound I-4] | > 10 | > 10
COc1cc2nn([C@H]3CC[C@H](CN4CCC(c5cncc(N6CCC[C@H](C(=O)Nc7ccc(=O)n(CC(=O)O)c7)C6)c5)CC4)CC3)cc2cc1NC(=O)c1cccc(C(F)(F)F)n1 [Compound I-10] | > 10 | > 10
CCOC(=O)Cn1cc(NC(=O)c2cccc(-c3cncc(CCCCCCNC[C@H]4CC[C@H](n5cc6cc(NC(=O)c7cccc(C(F)(F)F)n7)c(C(C)(C)O)cc6n5)CC4)c3)c2)ccc1=O [Compound I-97] | > 10 | 1 to 10
CC(C)(O)c1cc2nn([C@H]3CC[C@H](CNCCCCCCCCCc4cccc5c(-c6cccc(C(=O)Nc7ccc(=O)n(CC(=O)O)c7)c6)cncc45)CC3)cc2cc1NC(=O)c1cccc(C(F)(F)F)n1 [Compound I-50] | > 10 | > 10

Further lines, results first:

DC50 (IRAK4 [1]) [µM] | DC50 (IRAK4 [2]) [µM] | Structure (SMILES)
1 to 10 | > 10 | CCOC(=O)Cn1cc(NC(=O)[C@H]2CCCN(c3cncc(NCCOCCOCCOCCOCCNC[C@H]4CC[C@H](n5cc6cc(NC(=O)c7cccc(C(F)(F)F)n7)c(OC)cc6n5)CC4)c3)C2)ccc1=O [Compound I-13]
> 10 | > 10 | COc1cc2nn([C@H]3CC[C@H](CNCCc4cncc(N5CCC[C@H](C(=O)Nc6ccc(=O)n(CC(=O)O)c6)C5)c4)CC3)cc2cc1NC(=O)c1cccc(C(F)(F)F)n1 [Compound I-26]
1 to 10 | > 10 | CCOC(=O)Cn1cc(NC(=O)[C@H]2CCCN(c3cncc(C#CCOC4CCN(C[C@H]5CC[C@H](n6cc(NC(=O)c7cnn8ccc(N9C[C@H]%10C[C@@H]9CO%10)nc78)c(C(F)F)n6)CC5)CC4)c3)C2)ccc1=O [Compound I-23]
> 10 | > 10 | CCOC(=O)Cn1cc(NC(=O)c2cccc3c2ccn3CCCCCCCCCNC[C@H]2CC[C@H](n3cc(NC(=O)c4cnn5ccc(N6C[C@H]7C[C@@H]6CO7)nc45)c(C(F)F)n3)CC2)ccc1=O [Compound I-73]
> 10 | > 10 | O=C(O)Cn1cc(NC(=O)c2cc(CCCNC[C@H]3CC[C@H](n4cc(NC(=O)c5cnn6ccc(N7C[C@H]8C[C@@H]7CO8)nc56)c(C(F)F)n4)CC3)cc(-c3cccnc3)c2)ccc1=O [Compound I-76]
1 to 10 | > 10 | CC(C)(O)c1cc2nn([C@H]3CC[C@H](CNCCCCCCCCCn4ccc5c(C(=O)Nc6ccc(=O)n(CC(=O)O)c6)cccc54)CC3)cc2cc1NC(=O)c1cccc(C(F)(F)F)n1 [Compound I-68]
0.1 to 1 | > 10 | COc1cc2nn([C@H]3CC[C@H](CN4CCC(OCC#Cc5cncc(N6CCC[C@H](C(=O)Nc7ccc(=O)n(CC(=O)O)c7)C6)c5)CC4)CC3)cc2cc1NC(=O)c1cccc(C(F)(F)F)n1 [Compound I-9]
0.1 to 1 | 0.1 to 1 | CCOC(=O)Cn1cc(NC(=O)c2cccc3c2ccn3CCCCCCCCCNC[C@H]2CC[C@H](n3cc4cc(NC(=O)c5cccc(C(F)(F)F)n5)c(C(C)(C)O)cc4n3)CC2)ccc1=O [Compound I-69]
< 0.1 | > 10 | CCOC(=O)Cn1cc(NC(=O)[C@H]2CCCN(c3cncc(C#CCOC4CCN(C[C@H]5CC[C@H](n6cc7cc(NC(=O)c8cccc(C(F)(F)F)n8)c(OC)cc7n6)CC5)CC4)c3)C2)ccc1=O [Compound I-22]
< 0.1 | > 10 | CCOC(=O)Cn1cc(NC(=O)[C@H]2CCCN(c3cncc(CCCCCCNC[C@H]4CC[C@H](n5cc6cc(NC(=O)c7cccc(C(F)(F)F)n7)c(OC)cc6n5)CC4)c3)C2)ccc1=O [Compound I-42]
1 to 10 | > 10 | CCOC(=O)Cn1cc(NC(=O)[C@H]2CCCN(c3cncc(CCNC[C@H]4CC[C@H](n5cc(NC(=O)c6cnn7ccc(N8C[C@H]9C[C@@H]8CO9)nc67)c(C(F)F)n5)CC4)c3)C2)ccc1=O [Compound I-36]
1 to 10 | > 10 | COc1cc2nn([C@H]3CC[C@H](CNCCOCCOCCOCCOCCOc4cncc(N5CCC[C@H](C(=O)Nc6ccc(=O)n(CC(=O)O)c6)C5)c4)CC3)cc2cc1NC(=O)c1cccc(C(F)(F)F)n1 [Compound I-38]
